These results are taken from ChEMBL document CHEMBL5523742 (J Med Chem, 2024).

The target in one data set is Secretin receptor (Homo sapiens, UniProt P47872). The data set can be described thus: Agonist activity human SCTR stably expressed in CHO-K1 cells assessed as […] in cAMP accumulation incubated for 30 mins by TR-FRET assay. It counts as functional, cell-based. A general note: Changes in cAMP serve as a functional read-out for many G protein-coupled receptors.
The nature of data set [1]: Chemical stability of compound at pH 8 assessed as compound degradation. It is filed as physicochemical. Conditions: buffer; for degraded: read-out: Drug degradation.
Data set [2] can be described thus: Chemical stability of compound at pH 7 assessed as compound degradation. It is filed as physicochemical. Conditions: buffer.
Data set [3] can be described thus: Drug concentration in sc dosed C57BL/6JRj mouse plasma administered once daily for 28 days and measured after 24 hrs by LC-MS/MS analysis. It is filed as ADME, organism-based. Conditions: in vivo, 696 h, dose 3-30 nmol/kg, time 29 day.
A short description of data set [4]: Toxicity in sc dosed C57BL/6JRj mouse model assessed as reduction in body weight administered once daily for 28 days. It counts as organism-based. The conditions noted are these: in vivo, 672 h, dose 3-30 nmol/kg, time 28 day.
Data set [5] has as its target Glucagon receptor (Homo sapiens) (UniProt P47871). The data set can be described thus: Activation of GCGR (unknown origin) upto 3000 nM.
The target in data set [6] is T1, Glucagon-like peptide 2 receptor (Homo sapiens) (UniProt O95838).
T1 sequence (whole entry): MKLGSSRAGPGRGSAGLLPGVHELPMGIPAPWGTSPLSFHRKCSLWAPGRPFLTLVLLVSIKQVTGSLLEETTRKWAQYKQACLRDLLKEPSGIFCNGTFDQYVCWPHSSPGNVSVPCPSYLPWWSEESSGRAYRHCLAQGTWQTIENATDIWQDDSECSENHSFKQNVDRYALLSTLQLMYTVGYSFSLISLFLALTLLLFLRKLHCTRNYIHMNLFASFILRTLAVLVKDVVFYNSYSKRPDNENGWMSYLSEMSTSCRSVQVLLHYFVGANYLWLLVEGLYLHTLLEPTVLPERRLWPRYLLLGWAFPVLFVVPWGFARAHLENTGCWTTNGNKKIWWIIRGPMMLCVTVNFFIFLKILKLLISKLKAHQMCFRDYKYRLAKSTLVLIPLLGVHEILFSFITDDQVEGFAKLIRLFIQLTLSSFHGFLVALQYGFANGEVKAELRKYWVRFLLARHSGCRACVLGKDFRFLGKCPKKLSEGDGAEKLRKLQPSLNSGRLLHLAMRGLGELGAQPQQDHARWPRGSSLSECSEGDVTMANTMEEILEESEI
Kind of data set: Activation of GLP-2R (unknown origin) upto 3000 nM.

In data set [7] the target is T2, Gastric inhibitory polypeptide receptor (Homo sapiens) (UniProt P48546).
T2 sequence (whole entry): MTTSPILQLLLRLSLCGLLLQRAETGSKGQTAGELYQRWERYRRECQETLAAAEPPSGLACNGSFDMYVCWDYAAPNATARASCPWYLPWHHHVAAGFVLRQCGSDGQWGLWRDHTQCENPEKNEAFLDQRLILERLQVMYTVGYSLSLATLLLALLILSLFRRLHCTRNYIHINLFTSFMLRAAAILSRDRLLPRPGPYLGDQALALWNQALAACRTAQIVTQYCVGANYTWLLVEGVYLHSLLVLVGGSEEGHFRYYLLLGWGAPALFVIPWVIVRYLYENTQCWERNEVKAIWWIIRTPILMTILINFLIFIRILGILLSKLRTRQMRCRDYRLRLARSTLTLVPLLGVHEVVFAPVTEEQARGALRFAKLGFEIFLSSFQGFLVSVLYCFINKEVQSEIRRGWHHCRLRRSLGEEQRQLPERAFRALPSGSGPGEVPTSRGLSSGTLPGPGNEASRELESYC
The data set can be described thus: Activation of GIPR (unknown origin) upto 3000 nM.

A further data set is filed under the species Homo sapiens. The data set can be described thus: Selectivity index, ratio of EC50 for agonist activity human SCTR stably expressed in CHO-K1 cells assessed as […] in cAMP accumulation to EC50 for agonist activity human GLP-1R stably expressed in CHO-K1 cells assessed as […] in cAMP accumulation. It is filed as cell-based.
Data set [8] has as its system Mus musculus. The data set can be described thus: Protection against diet-induced obesity in C57BL/6JRj mouse model assessed as reduction in whole-body adipose tissue mass at 3 to 30 nmol/kg administered once daily for 28 days. It counts as functional, organism-based. Conditions: dose 3-30 nmol/kg, time 28.0 day.
The test system of data set [9] is Mus musculus. Kind of data set: Protection against diet-induced obesity in sc dosed C57BL/6JRj mouse model assessed as reduction in food intake administered once daily for 28 days and measured after 2 to 3 days. It is filed as functional, organism-based. Conditions: dose 3-30 nmol/kg, time 28-31 day.
In data set [10] the target is Glucagon-like peptide 1 receptor (Homo sapiens, UniProt P43220). Kind of data set: Agonist activity human GLP-1R stably expressed in CHO-K1 cells assessed as […] in cAMP accumulation incubated for 30 mins by TR-FRET assay. It is filed as functional, cell-based.

Calls of active or inactive are those of the source. The rule behind the calls is not given here. Numbered stars: 1 amine (or outer) side, 2 acyl side, 3 side chain; on linkers, the order of the positions; unused ones are H or OH. Square brackets hold non-standard residues; d marks the D form. Side chains are listed from the residue outwards. Peptide text beside a SMILES is read from it. * marks the point of attachment. ξ: configuration not given here. C20 diacid = O=C(O)CCCCCCCCCCCCCCCCCCC(=O)*; γGlu = O=C(O)[C@H](CCC(=O)[*:2])N[*:1]; ξγGlu = O=C(O)C(CCC(=O)[*:2])N[*:1]; AEEA = NCCOCCOCC(=O)O; Aib = CC(C)(N)C(=O)O

Sequence of Secretin receptor (P47872 whole entry): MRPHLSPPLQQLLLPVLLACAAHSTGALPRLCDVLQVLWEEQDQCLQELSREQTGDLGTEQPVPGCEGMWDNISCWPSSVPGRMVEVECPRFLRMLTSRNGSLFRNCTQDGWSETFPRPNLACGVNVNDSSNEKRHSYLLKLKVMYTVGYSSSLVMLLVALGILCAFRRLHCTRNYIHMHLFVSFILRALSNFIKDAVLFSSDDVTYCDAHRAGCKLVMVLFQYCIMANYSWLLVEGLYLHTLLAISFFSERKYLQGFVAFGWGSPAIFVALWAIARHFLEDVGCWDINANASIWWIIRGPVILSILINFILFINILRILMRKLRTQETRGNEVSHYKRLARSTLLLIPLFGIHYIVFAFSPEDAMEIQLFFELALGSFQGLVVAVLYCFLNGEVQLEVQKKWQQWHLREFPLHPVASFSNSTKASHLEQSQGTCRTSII
Sequence of Glucagon receptor (Homo sapiens) (P47871 whole entry): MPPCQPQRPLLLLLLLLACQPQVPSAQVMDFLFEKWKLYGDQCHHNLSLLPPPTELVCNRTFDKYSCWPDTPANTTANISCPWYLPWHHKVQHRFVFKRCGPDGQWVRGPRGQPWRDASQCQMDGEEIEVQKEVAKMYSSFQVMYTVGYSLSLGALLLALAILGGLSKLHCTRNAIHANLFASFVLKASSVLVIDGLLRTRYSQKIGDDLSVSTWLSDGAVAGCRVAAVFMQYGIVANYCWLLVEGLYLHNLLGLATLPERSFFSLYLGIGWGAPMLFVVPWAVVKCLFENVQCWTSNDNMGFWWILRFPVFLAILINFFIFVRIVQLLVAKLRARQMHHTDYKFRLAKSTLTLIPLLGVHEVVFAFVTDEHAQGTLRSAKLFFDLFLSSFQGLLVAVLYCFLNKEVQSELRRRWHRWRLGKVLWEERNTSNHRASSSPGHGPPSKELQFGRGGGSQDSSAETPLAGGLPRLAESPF
Sequence of Glucagon-like peptide 1 receptor (P43220 whole entry): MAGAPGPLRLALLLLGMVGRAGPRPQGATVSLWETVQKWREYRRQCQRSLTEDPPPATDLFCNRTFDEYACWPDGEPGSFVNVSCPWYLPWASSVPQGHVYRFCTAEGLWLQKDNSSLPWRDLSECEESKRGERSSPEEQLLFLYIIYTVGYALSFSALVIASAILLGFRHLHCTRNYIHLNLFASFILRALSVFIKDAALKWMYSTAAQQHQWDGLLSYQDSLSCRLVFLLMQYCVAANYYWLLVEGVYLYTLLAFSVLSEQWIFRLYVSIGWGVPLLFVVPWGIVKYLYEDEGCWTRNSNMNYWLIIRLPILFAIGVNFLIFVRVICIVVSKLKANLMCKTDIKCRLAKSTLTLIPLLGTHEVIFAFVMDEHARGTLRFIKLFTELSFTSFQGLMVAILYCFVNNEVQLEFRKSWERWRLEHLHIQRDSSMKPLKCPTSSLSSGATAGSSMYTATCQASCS

In the case of `CC[C@H](C)[C@H](NC(=O)[C@H](Cc1ccccc1)NC(=O)[C@H](CCC(=O)O)NC(=O)[C@H](CCCCN)NC(=O)[C@H](C)NC(=O)[C@H](C)NC(=O)[C@H](CCC(N)=O)NC(=O)CNC(=O)[C@H](CCC(=O)O)NC(=O)[C@H](CC(C)C)NC(=O)[C@H](Cc1ccc(O)cc1)NC(=O)[C@H](CO)NC(=O)[C@H](CO)NC(=O)[C@@H](NC(=O)[C@H](CC(=O)O)NC(=O)[C@H](CO)NC(=O)[C@@H](NC(=O)[C@H](Cc1ccccc1)NC(=O)[C@@H](NC(=O)CNC(=O)[C@H](CCC(=O)O)NC(=O)[C@H](C)NC(=O)[C@@H](N)Cc1c[nH]cn1)[C@H](C)O)[C@@H](C)O)C(C)C)C(=O)N[C@@H](C)C(=O)N[C@@H](Cc1c[nH]c2ccccc12)C(=O)N[C@@H](CC(C)C)C(=O)N[C@H](C(=O)N[C@@H](CCCCN)C(=O)NCC(=O)N[C@@H](CCCNC(=N)N)C(=O)O)C(C)C`, the EC50 (as a rule, the concentration that produces a half-maximal response) on Secretin receptor was found to be 800 nM. In data set [1], the degraded was 8.1%.
As to `CC(C)C[C@H](NC(=O)[C@H](Cc1ccccc1)NC(=O)[C@H](CCCNC(=N)N)NC(=O)[C@H](CCC(N)=O)NC(=O)[C@H](CC(C)C)NC(=O)C(C)(C)NC(=O)[C@H](C)NC(=O)[C@H](CCC(=O)O)NC(=O)[C@H](CCC(=O)O)NC(=O)[C@H](CCCCNC(=O)COCCOCCNC(=O)COCCOCCNC(=O)CC[C@H](NC(=O)CCCCCCCCCCCCCCCCCCC(=O)O)C(=O)O)NC(=O)[C@H](CC(C)C)NC(=O)[C@H](Cc1ccc(O)cc1)NC(=O)[C@H](CO)NC(=O)[C@@H](NC(=O)[C@H](CC(=O)O)NC(=O)[C@H](CO)NC(=O)[C@@H](NC(=O)[C@H](Cc1ccccc1)NC(=O)[C@@H](NC(=O)CNC(=O)[C@H](CCC(=O)O)NC(=O)C(C)(C)NC(=O)[C@@H](N)Cc1c[nH]cn1)[C@@H](C)O)[C@@H](C)O)C(C)C)C(=O)N[C@@H](CCC(=O)O)C(=O)N[C@@H](Cc1c[nH]cn1)C(=O)N[C@@H](CC(C)C)C(=O)N[C@H](C(N)=O)C(C)C` (H-H[Aib]EGTFTSDVSYLK([AEEA-AEEA-γGlu-C20 diacid])EEA[Aib]LQRFLEHLV-NH2), the degraded came to 1.4% in [2] (read-out: Drug degradation) and 0.55% in [1]. In addition, the Cp result in [3] is “Dose-Dependent Effect”. The Activity result in data set [4] is “Dose-Dependent Effect”.
In the case of `CC(C)C[C@H](NC(=O)[C@H](Cc1ccccc1)NC(=O)[C@H](CCCNC(=N)N)NC(=O)[C@H](CCC(N)=O)NC(=O)[C@H](CC(C)C)NC(=O)C(C)(C)NC(=O)[C@H](C)NC(=O)[C@H](CCC(=O)O)NC(=O)[C@H](CCC(=O)O)NC(=O)[C@H](CCCCNC(=O)COCCOCCNC(=O)COCCOCCNC(=O)CCC(NC(=O)CCCCCCCCCCCCCCCCCCC(=O)O)C(=O)O)NC(=O)[C@H](CC(C)C)NC(=O)[C@H](Cc1ccc(O)cc1)NC(=O)[C@H](CO)NC(=O)[C@@H](NC(=O)[C@H](CC(=O)O)NC(=O)[C@H](CO)NC(=O)[C@@H](NC(=O)[C@H](Cc1ccccc1)NC(=O)[C@@H](NC(=O)CNC(=O)[C@H](CCC(=O)O)NC(=O)C(C)(C)NC(=O)[C@@H](N)Cc1c[nH]cn1)[C@@H](C)O)[C@@H](C)O)C(C)C)C(=O)N[C@@H](CCC(=O)O)C(=O)N[C@@H](Cc1c[nH]cn1)C(=O)N[C@@H](CC(C)C)C(=O)N[C@H](C(N)=O)C(C)C` (some centres not stated) (H-H[Aib]EGTFTSDVSYLK([AEEA-AEEA-ξγGlu-C20 diacid])EEA[Aib]LQRFLEHLV-NH2), the outcome in data set [5], in data set [6] and in [7] was inactive. For the same compound, the Ratio EC50 in the data set listed under Homo sapiens worked out at 10600. In addition, in the data set with Mus musculus [8], the result was Active. Moreover, in the data set on Mus musculus [9], the Activity entry was “Dose-Dependent Effect”.
In the case of SECRETIN [listing 1 of 2 here], the Drug degradation in data set [2] was found to be 8.6%; in data set [1], 9%. Also, the results for the EC50 (at Secretin receptor (cho-k1); in [10]) were 0.002 nM and 2300 nM, respectively.
For SECRETIN [listing 2 of 2 here], in the data set filed under Homo sapiens, the Ratio EC50 is 1 10^-6No_unit.
